# ChEMBL document CHEMBL1201862, “PubChem BioAssay data set” (2004)
# The source made the active and inactive calls.
# Assays:
# [1] = target: DNA dC->dU-editing enzyme APOBEC-3G (Homo sapiens, UniProt Q9HC16); assay: APOBEC3G deaminase inhibitors, SAR follow-up, biochemical, fluorescence, single-stranded DNA substrate (AID 602136); assay type: functional; conditions: read-out: IC50_Mean
# [2] = target: DNA dC->dU-editing enzyme APOBEC-3A (Homo sapiens, UniProt P31941); assay: SAR analysis of small molecule inhibitors of APOBEC3A DNA Deaminase via a fluorescence-based single-stranded DNA deaminase assay.; assay type: functional; conditions: read-out: IC50_Mean
# Sequence of DNA dC->dU-editing enzyme APOBEC-3A (P31941 whole entry): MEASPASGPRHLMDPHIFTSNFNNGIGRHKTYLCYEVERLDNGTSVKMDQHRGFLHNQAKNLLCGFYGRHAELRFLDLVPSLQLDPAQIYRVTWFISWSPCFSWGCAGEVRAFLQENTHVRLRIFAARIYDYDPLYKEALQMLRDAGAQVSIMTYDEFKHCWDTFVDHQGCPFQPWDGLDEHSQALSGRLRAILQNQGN
# [3] = target: Melanin-concentrating hormone receptor 1 (Homo sapiens, UniProt Q99705); assay: Late-stage fluorescence-based counterscreen for antagonists of the G-protein coupled receptor 7 (GPR7): cell-based dose response assay to identify antagonists of the melanin-concentrating hormone receptor 1 (MCHR1) Set 5.; assay type: functional
# [4] = target: E3 ubiquitin-protein ligase Mdm2 (Homo sapiens, UniProt Q00987); assay: enhancers of MDM2-luciferase reporter signal, concentration-effect titration, project on inhibitors of MDM2 ubiquitin ligase, cellular assay, luminescent readout, 384-well plate format (AID 1394); assay type: functional;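 also: MDM2 E3 inhibitors raise luminescence so EC50 is for signal enhancement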
# Sequence of E3 ubiquitin-protein ligase Mdm2 (Q00987 whole entry): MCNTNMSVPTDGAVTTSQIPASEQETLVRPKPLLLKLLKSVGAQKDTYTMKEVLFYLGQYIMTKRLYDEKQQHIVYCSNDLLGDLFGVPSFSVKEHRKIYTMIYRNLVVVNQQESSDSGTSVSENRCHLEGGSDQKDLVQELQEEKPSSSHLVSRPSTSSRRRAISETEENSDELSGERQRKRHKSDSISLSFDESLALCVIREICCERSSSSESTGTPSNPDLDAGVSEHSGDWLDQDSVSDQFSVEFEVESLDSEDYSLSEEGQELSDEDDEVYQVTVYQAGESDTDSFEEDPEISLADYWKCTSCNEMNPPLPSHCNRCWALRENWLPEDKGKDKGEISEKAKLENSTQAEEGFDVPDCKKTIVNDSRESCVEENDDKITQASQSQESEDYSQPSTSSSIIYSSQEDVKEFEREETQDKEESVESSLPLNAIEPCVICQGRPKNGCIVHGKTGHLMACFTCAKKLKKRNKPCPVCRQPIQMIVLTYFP
# Beta-galactosidase = Beta-galactosidase (Escherichia coli, UniProt Q8VNN2); assay: PubChem AID 485352; assay type: functional
# [5] = target: T1, Type-1 angiotensin II receptor (Homo sapiens, UniProt P30556); assay: AT1 receptor antagonists, dose response, selectivity assay for APJ receptor antagonist project, cell-based, uHTS hits (AID 463214); assay type: functional;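 also: antagonist potency against angiotensin II stimulated AT1 response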
# T1 sequence (P30556 whole entry): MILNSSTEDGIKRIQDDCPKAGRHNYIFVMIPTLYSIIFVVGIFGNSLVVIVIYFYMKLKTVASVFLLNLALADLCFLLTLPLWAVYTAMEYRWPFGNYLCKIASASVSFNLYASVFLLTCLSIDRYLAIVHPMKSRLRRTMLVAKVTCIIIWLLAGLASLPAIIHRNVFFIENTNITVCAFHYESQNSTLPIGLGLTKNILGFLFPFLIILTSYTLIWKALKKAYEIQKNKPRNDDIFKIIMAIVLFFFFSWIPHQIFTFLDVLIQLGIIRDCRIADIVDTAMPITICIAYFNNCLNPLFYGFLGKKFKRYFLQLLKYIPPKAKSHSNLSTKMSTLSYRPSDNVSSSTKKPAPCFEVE
# [6] = cytotoxicity in HEK-293T cells, dose response, cytotoxicity control for TCR NF-kB inhibitor project, luminescence, T-cell screen hits (AID 489026); assay type: functional, cell-based;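 also: cells exposed to compound about 14 hours before the viability readout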
# CHO = assay: cytotoxicity in TLR9-MyD88 CHO cells, dose response, cytotoxicity control for TLR9-MyD88 binding inhibitor project, cell-based, luminescence (AID 588339); assay type: functional, hamster; conditions: Cricetulus griseus;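 also: CHO cells stably coexpressing TLR9 and MyD88 fusions from primary screen; compound exposure lasted 48 hours before viability readout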
# [7] = target: Heat shock protein HSP 90-alpha (Homo sapiens, UniProt P07900); assay type: functional, organism-based
# Beta Lactamase = Beta Lactamase (Pseudomonas aeruginosa, UniProt Q932Y6); assay: beta-lactamase reporter inhibitor potency, dose response, artefact control for TLR9-MyD88 binding inhibitor project, BLA reporter cells, FRET fluorescence (AID 588341); assay type: cell-based;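 also: cell based assay in CHO-K1 cells stably expressing beta-lactamase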
# Melanocortin receptor 4 = Melanocortin receptor 4 (Homo sapiens, UniProt P32245); assay: MC4R antagonist potency on cAMP, dose response, cell-based, TR-FRET, biased antagonists (AID 602298); assay type: functional;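 also: antagonist potency against agonist-stimulated cAMP production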
# [8] = Shn3 3'UTR reporter inhibitors, dose response, cell-based, Clone20 osteoblasts, firefly luciferase, cherry-picked (AID 624132); assay type: functional;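 also: firefly luciferase luminescence from reporter carrying the Shn3 3'UTR in osteoblasts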
# [9] = control 3'UTR Renilla luciferase suppression, dose response, counter-screen for Shn3 inhibitor project, cell-based, Clone20-Shn3RL, cherry-picked (AID 624133); assay type: functional
# [10] = nonselective inhibitors of cellular cAMP signaling, dose response, counter-screen for MC4R biased antagonist project, cell-based, TR-FRET cAMP detection (AID 602305); assay type: functional;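 also: U2OS cells stimulated with forskolin near its EC80 as the cAMP inducer; potency is for inhibition of forskolin-stimulated cAMP signaling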
# Fatty acid synthase [11] = target: T2, Fatty acid synthase (Homo sapiens, UniProt P49327); assay: FAS thioesterase domain inhibitors, dose response, biochemical, endpoint fluorescence intensity, uHTS hits (AID 624327); assay type: functional;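 also: fluorescence from hydrolysis of an O-methyl fluorescein acyl ester substrate by the enzyme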
# T2 sequence (P49327 whole entry, the tested form may be a part): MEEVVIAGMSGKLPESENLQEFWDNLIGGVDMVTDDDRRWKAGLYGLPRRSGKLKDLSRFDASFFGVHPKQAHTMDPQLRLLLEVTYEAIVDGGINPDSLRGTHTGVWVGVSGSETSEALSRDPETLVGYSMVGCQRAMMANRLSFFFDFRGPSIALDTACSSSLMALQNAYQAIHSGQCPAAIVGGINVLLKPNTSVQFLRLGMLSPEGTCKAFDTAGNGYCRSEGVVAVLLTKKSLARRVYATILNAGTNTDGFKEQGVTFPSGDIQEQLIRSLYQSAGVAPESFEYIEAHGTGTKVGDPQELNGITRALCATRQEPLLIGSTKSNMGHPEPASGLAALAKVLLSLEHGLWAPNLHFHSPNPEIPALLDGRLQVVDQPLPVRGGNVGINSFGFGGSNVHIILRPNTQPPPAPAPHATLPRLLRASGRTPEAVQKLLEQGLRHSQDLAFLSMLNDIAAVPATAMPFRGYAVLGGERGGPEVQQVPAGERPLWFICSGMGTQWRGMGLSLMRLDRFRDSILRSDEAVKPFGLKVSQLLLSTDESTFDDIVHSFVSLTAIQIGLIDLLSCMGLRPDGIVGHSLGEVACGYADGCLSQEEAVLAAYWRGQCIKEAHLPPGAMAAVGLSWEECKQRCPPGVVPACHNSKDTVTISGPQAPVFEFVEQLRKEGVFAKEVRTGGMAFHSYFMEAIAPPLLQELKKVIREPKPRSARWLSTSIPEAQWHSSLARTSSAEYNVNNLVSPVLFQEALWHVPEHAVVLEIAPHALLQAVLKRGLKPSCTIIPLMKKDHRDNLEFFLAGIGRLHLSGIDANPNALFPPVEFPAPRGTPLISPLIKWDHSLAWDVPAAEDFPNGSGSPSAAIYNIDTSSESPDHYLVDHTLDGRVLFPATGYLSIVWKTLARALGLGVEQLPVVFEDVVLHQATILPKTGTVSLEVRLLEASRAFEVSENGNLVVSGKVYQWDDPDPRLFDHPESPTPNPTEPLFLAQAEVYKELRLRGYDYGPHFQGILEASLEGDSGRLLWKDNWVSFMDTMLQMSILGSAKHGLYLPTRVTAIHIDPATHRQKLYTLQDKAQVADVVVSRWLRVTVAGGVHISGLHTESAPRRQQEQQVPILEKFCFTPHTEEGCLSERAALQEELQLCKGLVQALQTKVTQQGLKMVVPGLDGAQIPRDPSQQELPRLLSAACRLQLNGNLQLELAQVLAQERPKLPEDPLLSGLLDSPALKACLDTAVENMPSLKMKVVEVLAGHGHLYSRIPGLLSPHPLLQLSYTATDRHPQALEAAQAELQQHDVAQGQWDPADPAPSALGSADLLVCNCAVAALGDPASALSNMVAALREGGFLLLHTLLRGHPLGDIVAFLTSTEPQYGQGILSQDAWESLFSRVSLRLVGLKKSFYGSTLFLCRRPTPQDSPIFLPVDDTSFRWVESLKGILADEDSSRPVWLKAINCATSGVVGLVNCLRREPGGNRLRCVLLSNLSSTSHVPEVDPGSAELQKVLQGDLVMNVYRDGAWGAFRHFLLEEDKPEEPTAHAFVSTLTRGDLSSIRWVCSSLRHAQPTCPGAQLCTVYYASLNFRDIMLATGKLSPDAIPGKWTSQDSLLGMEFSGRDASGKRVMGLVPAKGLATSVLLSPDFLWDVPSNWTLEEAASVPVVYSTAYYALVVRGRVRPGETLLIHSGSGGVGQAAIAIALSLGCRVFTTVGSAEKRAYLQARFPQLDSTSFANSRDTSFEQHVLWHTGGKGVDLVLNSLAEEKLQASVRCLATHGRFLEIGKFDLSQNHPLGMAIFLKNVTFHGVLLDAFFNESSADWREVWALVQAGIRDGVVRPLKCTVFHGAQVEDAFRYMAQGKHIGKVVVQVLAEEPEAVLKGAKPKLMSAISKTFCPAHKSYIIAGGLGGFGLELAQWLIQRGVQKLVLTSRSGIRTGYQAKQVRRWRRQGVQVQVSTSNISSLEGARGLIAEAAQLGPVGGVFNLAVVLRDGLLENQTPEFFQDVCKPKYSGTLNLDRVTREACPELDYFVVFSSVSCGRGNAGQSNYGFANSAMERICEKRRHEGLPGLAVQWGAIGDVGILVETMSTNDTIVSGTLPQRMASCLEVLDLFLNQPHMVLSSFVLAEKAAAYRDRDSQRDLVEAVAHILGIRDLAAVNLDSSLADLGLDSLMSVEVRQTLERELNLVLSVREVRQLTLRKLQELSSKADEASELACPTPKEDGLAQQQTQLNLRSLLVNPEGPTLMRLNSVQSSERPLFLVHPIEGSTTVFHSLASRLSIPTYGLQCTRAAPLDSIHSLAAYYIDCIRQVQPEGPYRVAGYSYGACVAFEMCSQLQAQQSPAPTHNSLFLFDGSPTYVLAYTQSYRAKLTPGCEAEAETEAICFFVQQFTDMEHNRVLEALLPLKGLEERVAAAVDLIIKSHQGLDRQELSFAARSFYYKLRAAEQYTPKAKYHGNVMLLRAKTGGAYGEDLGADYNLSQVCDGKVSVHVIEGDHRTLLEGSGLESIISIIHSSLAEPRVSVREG
# [12] = HeLa cell cytotoxicity, dose response, cytotoxicity control for MgcRacGAP inhibitor project (AID 624300); assay type: functional
# [13] = target: T3, Rac GTPase-activating protein 1 (Homo sapiens, UniProt Q9H0H5); assay: MgcRacGAP GTPase-activating activity inhibitors, confirmation, biochemical, ADP Hunter fluorescence, primary and confirmatory (AID 624330); assay type: functional
# T3 sequence (Q9H0H5 whole entry): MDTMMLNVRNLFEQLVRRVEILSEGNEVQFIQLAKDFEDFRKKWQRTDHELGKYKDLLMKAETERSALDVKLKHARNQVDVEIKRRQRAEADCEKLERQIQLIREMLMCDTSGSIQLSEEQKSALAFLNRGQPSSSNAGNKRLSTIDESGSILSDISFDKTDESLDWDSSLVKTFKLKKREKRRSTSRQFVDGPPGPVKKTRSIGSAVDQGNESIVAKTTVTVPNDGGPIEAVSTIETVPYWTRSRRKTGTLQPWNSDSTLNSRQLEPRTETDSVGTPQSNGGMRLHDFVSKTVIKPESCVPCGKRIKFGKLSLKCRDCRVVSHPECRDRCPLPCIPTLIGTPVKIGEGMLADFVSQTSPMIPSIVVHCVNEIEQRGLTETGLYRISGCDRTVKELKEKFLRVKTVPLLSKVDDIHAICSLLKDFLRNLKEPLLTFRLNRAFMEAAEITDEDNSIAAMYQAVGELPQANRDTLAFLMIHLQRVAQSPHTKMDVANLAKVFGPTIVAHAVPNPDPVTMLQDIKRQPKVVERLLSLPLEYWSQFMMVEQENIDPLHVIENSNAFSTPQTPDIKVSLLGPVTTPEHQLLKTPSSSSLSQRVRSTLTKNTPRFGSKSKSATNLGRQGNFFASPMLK
# Fatty acid synthase [14] = target: T2, Fatty acid synthase; assay: FAS thioesterase domain inhibitors, dose response, biochemical, kinetic fluorescence intensity (AID 624326); assay type: functional;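 also: rate of fluorescence rise from hydrolysis of a fluorogenic O-methyl fluorescein ester substrate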
# [15] = target: Ribosomal protein S6 kinase alpha-3 (Homo sapiens, UniProt P51812); assay type: functional;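 also: measured within a kinome-wide profiling panel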
# Sequence of Ribosomal protein S6 kinase alpha-3 (P51812 whole entry): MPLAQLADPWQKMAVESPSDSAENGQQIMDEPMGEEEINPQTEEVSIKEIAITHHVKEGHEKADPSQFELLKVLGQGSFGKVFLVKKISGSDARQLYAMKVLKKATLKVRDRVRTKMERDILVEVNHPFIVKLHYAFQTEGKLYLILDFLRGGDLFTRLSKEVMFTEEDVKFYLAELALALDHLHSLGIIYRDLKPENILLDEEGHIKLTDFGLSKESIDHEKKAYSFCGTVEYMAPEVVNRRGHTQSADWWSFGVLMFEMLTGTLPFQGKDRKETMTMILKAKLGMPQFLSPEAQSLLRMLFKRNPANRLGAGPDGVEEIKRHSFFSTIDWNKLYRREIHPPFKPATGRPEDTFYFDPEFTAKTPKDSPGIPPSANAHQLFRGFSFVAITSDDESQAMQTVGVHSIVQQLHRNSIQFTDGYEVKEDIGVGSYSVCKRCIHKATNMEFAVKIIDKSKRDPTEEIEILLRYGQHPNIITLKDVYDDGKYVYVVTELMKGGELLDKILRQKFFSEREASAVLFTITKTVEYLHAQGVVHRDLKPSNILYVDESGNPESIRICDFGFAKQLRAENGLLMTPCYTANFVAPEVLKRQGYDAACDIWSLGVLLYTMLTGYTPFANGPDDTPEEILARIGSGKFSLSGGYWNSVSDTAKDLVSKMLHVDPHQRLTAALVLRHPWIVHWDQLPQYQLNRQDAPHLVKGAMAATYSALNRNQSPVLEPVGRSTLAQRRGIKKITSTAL
# [16] = target: Ribosomal protein S6 kinase beta-1 (Homo sapiens, UniProt P23443); assay type: functional;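 also: measured as one member of a kinome-wide profiling panel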
# Sequence of Ribosomal protein S6 kinase beta-1 (P23443 whole entry): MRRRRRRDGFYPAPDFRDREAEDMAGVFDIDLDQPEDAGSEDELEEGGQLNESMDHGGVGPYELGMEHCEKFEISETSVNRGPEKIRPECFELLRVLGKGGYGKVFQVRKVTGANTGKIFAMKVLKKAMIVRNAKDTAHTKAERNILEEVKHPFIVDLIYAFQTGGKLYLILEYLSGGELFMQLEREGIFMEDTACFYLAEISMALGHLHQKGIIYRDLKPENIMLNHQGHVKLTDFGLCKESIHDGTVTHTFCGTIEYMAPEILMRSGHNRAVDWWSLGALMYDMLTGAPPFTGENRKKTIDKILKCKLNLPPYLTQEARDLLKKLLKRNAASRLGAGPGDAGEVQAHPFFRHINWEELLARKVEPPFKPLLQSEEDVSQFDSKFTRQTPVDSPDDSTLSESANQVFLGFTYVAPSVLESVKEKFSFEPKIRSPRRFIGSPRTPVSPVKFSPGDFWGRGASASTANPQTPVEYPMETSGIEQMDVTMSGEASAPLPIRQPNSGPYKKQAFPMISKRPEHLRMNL
# [17] = target: MAP kinase-activated protein kinase 2 (Homo sapiens, UniProt P49137); assay type: functional;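 also: measured as one member of a kinome-wide kinase panel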
# Sequence of MAP kinase-activated protein kinase 2 (P49137 whole entry): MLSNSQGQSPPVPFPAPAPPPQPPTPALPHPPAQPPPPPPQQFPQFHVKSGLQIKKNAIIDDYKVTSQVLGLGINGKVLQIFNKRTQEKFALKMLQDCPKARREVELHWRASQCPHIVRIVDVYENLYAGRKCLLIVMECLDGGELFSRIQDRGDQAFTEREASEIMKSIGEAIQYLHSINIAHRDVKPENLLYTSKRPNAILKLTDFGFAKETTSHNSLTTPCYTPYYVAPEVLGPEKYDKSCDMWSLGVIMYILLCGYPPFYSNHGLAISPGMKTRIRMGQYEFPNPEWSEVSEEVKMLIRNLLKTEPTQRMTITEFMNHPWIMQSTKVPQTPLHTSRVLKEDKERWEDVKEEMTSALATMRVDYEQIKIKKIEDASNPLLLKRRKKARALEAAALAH
# [18] = target: Glycogen synthase kinase-3 beta (Homo sapiens, UniProt P49841); assay type: functional;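 also: value comes from a broad kinome profiling panel, with GSK3B as the panel member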
smiles,measurement,setting,value
CCCCn1c(=O)c2ccccc2n2c(SCCS(=O)(=O)c3ccccc3)nnc12,IC50,[1],> 99 µM (inactive)
same,IC50,[2],> 99 µM (inactive)
COc1ccc(Oc2c(Cl)cnn(Cc3cccc4ccccc34)c2=O)c(F)c1,IC50,[3],6.24 µM (active)
COc1ccc(NC(=O)/C(Cl)=C(/Cl)[S+]([O-])Cc2ccc(Cl)cc2)cn1 (configuration not stated),EC50,[4],0.62 µM (active)
same,EC50,Beta-galactosidase,> 40 µM (inactive)
same,IC50,[5],2.35 µM (active)
same,IC50,[6],41.7 µM (inactive)
same,IC50,CHO,0.463 µM (active)
same,AC50,[7],0.885 µM (active)
same,IC50,Beta Lactamase,7.83 µM (active)
same,IC50,Melanocortin receptor 4,9.97 µM (active)
same,AC50,[8],1.34 µM (active)
same,AC50,[9],3.48 µM (active)
same,IC50,[10],> 64.6 µM (inactive)
same,IC50,Fatty acid synthase [11],5.57 µM (active)
same,CC50,[12],100 µM (active)
same,IC50,[13],16.9 µM (active)
same,IC50,Fatty acid synthase [14],2.83 µM (active)
CCOC(=O)c1c(NC(=O)C2C(C)(C)C2(C)C)sc2cnccc12,Ki,[15],6.31 µM (active)
same,Ki,[16],2.51 µM (active)
same,Ki,[17],6.31 µM (active)
same,Ki,[18],3.98 µM (active)
